Patent US20250011873A1, “ENDOCRINE TREATMENT OF HORMONE RECEPTOR POSITIVE BREAST CANCER TYPED AS HAVING A LOW RISK OF RECURRENCE” (Agendia N.V., priority 2021, published 2025)

How the values were obtained:
[1] = test system: hormone-receptor (+) breast cancer; settings: cited from earlier work
[2] = test system: hormone-receptor (+) breast cancer; assay: NSABP B-42 randomized, double-blinded, placebo-controlled trial of extended adjuvant letrozole, analysed by MammaPrint risk group; format: in vivo, human; settings: for HR, DFS: B-42 primary endpoint; for 10-year rate (%), letrozole arm (DFS rows: disease-free survival rate; DR/BCFI rows: event rate) / # Events (Letrozole): letrozole arm; for Abs. benefit (%): 10-year
Text: NSABP B42 (Mamounas et al., 2019. Lancet Oncol 20: 88-99) refers to a randomized, double-blinded, placebo-controlled clinical trial of extended adjuvant endocrine therapy (tx) with letrozole (L) in postmenopausal women with hormone-receptor (+) breast cancer (BC) who have completed previous adjuvant tx with an aromatase inhibitor (AI). A pre-treatment gene expression biomarker such as MammaPrint may identify breast cancers at risk of recurrence in years 5 to 10 after diagnosis, for whom EET will be beneficial.
The MammaPrint test uses the expression levels of 70 genes to assess a patient's risk of recurrence. For the primary analysis, patient tumor samples were classified into a High Risk or Low Risk group by the 0.00 threshold in the MammaPrint index (high up to and low above 0.00 index, respectively). Recently, a subgroup of ultralow tumors is defined by MammaPrint index>+0.355 (Esserman et al., 2017. JAMA Oncol 3: 1503-1510).
Population for all analyses was based on the intention-to-treat (ITT) principle: patients were analyzed according to their randomized treatment, regardless of what they actually receive. This ensures the strengths of randomization are kept (an equal balance of potential prognostic factors between both groups), but it estimates the treatment effect in clinical practice.
Within the total study population and within each treatment arm, univariate Cox Regression Analysis were performed for MammaPrint risk groups and all available clinical, pathological, therapeutic variables. Summary statistics from the Cox model included the number of patients analyzed, hazard ratio (with 95% confidence interval (CI)) of the comparison and the according p-value. A p-value less than 0.05 (two sided) was considered statistically significance.
Differences in primary and secondary endpoints between placebo and letrozole groups were assessed by stratified log-rank tests. Stratification factors included original stratification factors from the parent B-42 trial, i.e., pathological node status at diagnosis (negative vs positive), prior tamoxifen use (no vs yes), and lowest bone mineral density T score in the lumbosacral spine, total hip, or femoral neck (≤−2.0 or >−2.0 SD).
Multivariate Cox Regression Analysis were utilized to examine the interaction between EET treatment and MP Risk index. Secondary elaborated multivariate analyses were performed to examine interaction with MammaPrint, EET treatment and any clinical and pathologic variable. Summary statistics from these Cox models include the number of patients analyzed, hazard ratios (with 95% CI) of the comparisons and the according p-values.
The following event variables were used for appropriate analyses: • Distant Recurrence (DR): yes vs. no • Time to DR: continuous months • Overall Survival (OS): yes vs. no • Time to Death: continuous months • Disease Free Survival (DFS): yes vs. no • Time to DFS: continuous months • Breast Cancer Free Interval (BCFI): yes vs. no • Time to BCFI: continuous months
A Kaplan-Meier curve with corresponding Log-rank test was used to visualize the survival distribution function for each MammaPrint risk group. Cox PH models stratified by nodal status, prior tamoxifen use, and lowest bone mineral density T-score was used to explore the association among risk factors listed to survival outcomes. This was done for each treatment arm. Kaplan-Meier curves were also used to visualize the survival distribution function for each treatment group.
NSABP-B42 assessed the effect of 5 years of letrozole after 5 years of prior endocrine therapy in postmenopausal women with early stage hormone receptor positive (HR+) breast cancer. Randomization occurred five years after diagnosis.
There were 3,966 patients randomly assigned to placebo or letrozole. Among them, 63 were excluded due to either no clinical assessment or not being at risk for the primary DFS endpoint for the B-42 parent trial. Blocks were available for 2,339 patients who consented for future research. […]

[3] = test system: early-stage ER positive breast cancer; settings: tamoxifen for five years; during the treatment period; cited from earlier work
[4] = BCFI, MP Risk Group H, letrozole vs placebo
[5] = BCFI, MP Risk Group L, letrozole vs placebo
[6] = BCFI, MP Risk Group LNUL, letrozole vs placebo
[7] = BCFI, MP Risk Group UL, letrozole vs placebo
[8] = DFS, MP Risk Group H, letrozole vs placebo
[9] = DFS, MP Risk Group L, letrozole vs placebo
[10] = DFS, MP Risk Group LNUL, letrozole vs placebo
[11] = DFS, MP Risk Group UL, letrozole vs placebo
[12] = DR, MP Risk Group H, letrozole vs placebo
[13] = DR, MP Risk Group L, letrozole vs placebo
[14] = DR, MP Risk Group LNUL, letrozole vs placebo
[15] = DR, MP Risk Group UL, letrozole vs placebo
[16] = all patients of the translational MP cohort, letrozole vs placebo

Compound: N#Cc1ccc(C(c2ccc(C#N)cc2)n2cncn2)cc1 [Letrozole, letrozole]
- prolongation of disease-free survival (DFS) ([1]; NSABP B42, extended letrozole therapy compared to the placebo group (Mamounas et al., 2019)): no statistically significant prolongation
- reduction in distant recurrence (DR) in the letrozole arm ([1]; NSABP B42, extended letrozole vs placebo (Mamounas et al., 2019)): 28%
- HR, DFS ([2]; 6.9 years of median follow-up): 0.85
- HR, DFS ([2]; updated results, 10.3 years of median follow-up): 0.85
- reduction of distant recurrence (DR) in the letrozole arm ([2]; B-42 secondary endpoint): 28%
- 10-year rate (%), letrozole arm (DFS rows: disease-free survival rate; DR/BCFI rows: event rate) ([2]; BCFI, MP Risk Group H): 14.6%
- # Events (Letrozole) ([2]; BCFI, MP Risk Group H): 42
- HR (95% CI) [2, 4]: 1.15
- Abs. benefit (%) [2, 4]: −3.0%
- HR (95% CI) ([2]; BCFI, MP Risk Group H, letrozole vs placebo, listed as letrozole): 1.15 (0.74, 1.79)
- 10-year rate (%), letrozole arm (DFS rows: disease-free survival rate; DR/BCFI rows: event rate) ([2]; BCFI, MP Risk Group L): 8.4%
- # Events (Letrozole) ([2]; BCFI, MP Risk Group L): 44
- HR (95% CI) [2, 5]: 0.51
- Abs. benefit (%) [2, 5]: 7.0%
- HR (95% CI) ([2]; BCFI, MP Risk Group L, letrozole vs placebo, listed as letrozole): 0.51 (0.35, 0.74)
- 10-year rate (%), letrozole arm (DFS rows: disease-free survival rate; DR/BCFI rows: event rate) ([2]; BCFI, MP Risk Group LNUL): 8.7%
- # Events (Letrozole) ([2]; BCFI, MP Risk Group LNUL): 36
- HR (95% CI) [2, 6]: 0.48
- Abs. benefit (%) [2, 6]: 7.9%
- HR (95% CI) ([2]; BCFI, MP Risk Group LNUL, letrozole vs placebo, listed as letrozole): 0.48 (0.32-0.73)
- 10-year rate (%), letrozole arm (DFS rows: disease-free survival rate; DR/BCFI rows: event rate) ([2]; BCFI, MP Risk Group UL): 7.3%
- # Events (Letrozole) ([2]; BCFI, MP Risk Group UL): 8
- HR (95% CI) [2, 7]: 0.67
- Abs. benefit (%) [2, 7]: 4.1%
- HR (95% CI) ([2]; BCFI, MP Risk Group UL, letrozole vs placebo, listed as letrozole): 0.67 (0.28, 1.65)
- 10-year rate (%), letrozole arm (DFS rows: disease-free survival rate; DR/BCFI rows: event rate) ([2]; DFS, MP Risk Group H): 71.2%
- # Events (Letrozole) ([2]; DFS, MP Risk Group H): 91
- HR (95% CI) [2, 8]: 1.10
- Abs. benefit (%) [2, 8]: −1.6%
- HR (95% CI) ([2]; DFS, MP Risk Group H, letrozole vs placebo, listed as letrozole): 1.10 (0.82, 1.47)
- 10-year rate (%), letrozole arm (DFS rows: disease-free survival rate; DR/BCFI rows: event rate) ([2]; DFS, MP Risk Group L): 79.7%
- # Events (Letrozole) ([2]; DFS, MP Risk Group L): 113
- HR (95% CI) [2, 9]: 0.67
- Abs. benefit (%) [2, 9]: 7.8%
- HR (95% CI) ([2]; DFS, MP Risk Group L, letrozole vs placebo, listed as letrozole): 0.67 (0.52, 0.85)
- 10-year rate (%), letrozole arm (DFS rows: disease-free survival rate; DR/BCFI rows: event rate) ([2]; DFS, MP Risk Group LNUL): 78.9%
- # Events (Letrozole) ([2]; DFS, MP Risk Group LNUL): 93
- HR (95% CI) [2, 10]: 0.64
- Abs. benefit (%) [2, 10]: 9.5%
- HR (95% CI) ([2]; DFS, MP Risk Group LNUL, letrozole vs placebo, listed as letrozole): 0.64 (0.49, 0.83)
- 10-year rate (%), letrozole arm (DFS rows: disease-free survival rate; DR/BCFI rows: event rate) ([2]; DFS, MP Risk Group UL): 82.5%
- # Events (Letrozole) ([2]; DFS, MP Risk Group UL): 20
- HR (95% CI) [2, 11]: 0.82
- Abs. benefit (%) [2, 11]: 1.8%
- HR (95% CI) ([2]; DFS, MP Risk Group UL, letrozole vs placebo, listed as letrozole): 0.82 (0.45, 1.48)
- 10-year rate (%), letrozole arm (DFS rows: disease-free survival rate; DR/BCFI rows: event rate) ([2]; DR, MP Risk Group H): 4.9%
- # Events (Letrozole) ([2]; DR, MP Risk Group H): 15
- HR (95% CI) [2, 12]: 0.65
- Abs. benefit (%) [2, 12]: 2.4%
- HR (95% CI) ([2]; DR, MP Risk Group H, letrozole vs placebo, listed as letrozole): 0.65 (0.34, 1.24)
- 10-year rate (%), letrozole arm (DFS rows: disease-free survival rate; DR/BCFI rows: event rate) ([2]; DR, MP Risk Group L): 3.5%
- # Events (Letrozole) ([2]; DR, MP Risk Group L): 20
- HR (95% CI) [2, 13]: 0.43
- Abs. benefit (%) [2, 13]: 3.7%
- HR (95% CI) ([2]; DR, MP Risk Group L, letrozole vs placebo, listed as letrozole): 0.43 (0.25, 0.74)
- 10-year rate (%), letrozole arm (DFS rows: disease-free survival rate; DR/BCFI rows: event rate) ([2]; DR, MP Risk Group LNUL): 3.6%
- # Events (Letrozole) ([2]; DR, MP Risk Group LNUL): 17
- HR (95% CI) [2, 14]: 0.42
- Abs. benefit (%) [2, 14]: 4.0%
- HR (95% CI) ([2]; DR, MP Risk Group LNUL, letrozole vs placebo, listed as letrozole): 0.42 (0.23, 0.76)
- 10-year rate (%), letrozole arm (DFS rows: disease-free survival rate; DR/BCFI rows: event rate) ([2]; DR, MP Risk Group UL): 2.9%
- # Events (Letrozole) ([2]; DR, MP Risk Group UL): 3
- HR (95% CI) [2, 15]: 0.53
- Abs. benefit (%) [2, 15]: 3.0%
- HR (95% CI) ([2]; DR, MP Risk Group UL, letrozole vs placebo, listed as letrozole): 0.53 (0.13, 2.15)
- HR, rate of DR ([2]; Excluded B-42 cohort, letrozole vs placebo): 0.92
- HR, BCFI ([2]; MP-H subgroup, after 5.2 years (time-dependent analysis)): 2.77
- HR, BCFI ([2]; MP-H subgroup, prior to 5.2 years (time-dependent analysis)): 0.65
- HR, BCFI ([2]; MP-L subgroup, after 5.2 years (time-dependent analysis)): 0.37
- HR, BCFI ([2]; MP-L subgroup, prior to 5.2 years (time-dependent analysis)): 0.65
- HR, breast cancer-free interval [2, 16]: 0.70 (0.53, 0.93)
- HR, disease-free survival [2, 16]: 0.81 (0.68, 0.98)

Compound: CC/C(=C(\c1ccccc1)c1ccc(OCCN(C)C)cc1)c1ccccc1 [tamoxifen]
- reduction of recurrence rate compared to placebo [3]: 50%
